pIC50, pKi: −log10 of the molar value.
Legend:
[1] = Displacement of [Phe13, [125I]Tyr19]-MCH from human MCHR1 E4Q/A5T double mutant expressed in HEK293 cell membranes after 90 mins by scintillation counting analysis
[2] = target: Voltage-gated inwardly rectifying potassium channel KCNH2 (Homo sapiens, UniProt Q12809); assay: Inhibition of human ERG expressed in CHO cells by automated whole-cell patch clamp electrophysiology system; type: cell-based
hERG (KCNH2) [3] = target: T1, hERG (KCNH2) (Homo sapiens, UniProt Q12809); assay: Inhibition of human ERG expressed in CHO cells at 0.3 uM by automated whole-cell patch clamp electrophysiology system relative to control; type: cell-based; conditions: CHO cells expressing human ERG
T1 sequence (Q12809 whole entry): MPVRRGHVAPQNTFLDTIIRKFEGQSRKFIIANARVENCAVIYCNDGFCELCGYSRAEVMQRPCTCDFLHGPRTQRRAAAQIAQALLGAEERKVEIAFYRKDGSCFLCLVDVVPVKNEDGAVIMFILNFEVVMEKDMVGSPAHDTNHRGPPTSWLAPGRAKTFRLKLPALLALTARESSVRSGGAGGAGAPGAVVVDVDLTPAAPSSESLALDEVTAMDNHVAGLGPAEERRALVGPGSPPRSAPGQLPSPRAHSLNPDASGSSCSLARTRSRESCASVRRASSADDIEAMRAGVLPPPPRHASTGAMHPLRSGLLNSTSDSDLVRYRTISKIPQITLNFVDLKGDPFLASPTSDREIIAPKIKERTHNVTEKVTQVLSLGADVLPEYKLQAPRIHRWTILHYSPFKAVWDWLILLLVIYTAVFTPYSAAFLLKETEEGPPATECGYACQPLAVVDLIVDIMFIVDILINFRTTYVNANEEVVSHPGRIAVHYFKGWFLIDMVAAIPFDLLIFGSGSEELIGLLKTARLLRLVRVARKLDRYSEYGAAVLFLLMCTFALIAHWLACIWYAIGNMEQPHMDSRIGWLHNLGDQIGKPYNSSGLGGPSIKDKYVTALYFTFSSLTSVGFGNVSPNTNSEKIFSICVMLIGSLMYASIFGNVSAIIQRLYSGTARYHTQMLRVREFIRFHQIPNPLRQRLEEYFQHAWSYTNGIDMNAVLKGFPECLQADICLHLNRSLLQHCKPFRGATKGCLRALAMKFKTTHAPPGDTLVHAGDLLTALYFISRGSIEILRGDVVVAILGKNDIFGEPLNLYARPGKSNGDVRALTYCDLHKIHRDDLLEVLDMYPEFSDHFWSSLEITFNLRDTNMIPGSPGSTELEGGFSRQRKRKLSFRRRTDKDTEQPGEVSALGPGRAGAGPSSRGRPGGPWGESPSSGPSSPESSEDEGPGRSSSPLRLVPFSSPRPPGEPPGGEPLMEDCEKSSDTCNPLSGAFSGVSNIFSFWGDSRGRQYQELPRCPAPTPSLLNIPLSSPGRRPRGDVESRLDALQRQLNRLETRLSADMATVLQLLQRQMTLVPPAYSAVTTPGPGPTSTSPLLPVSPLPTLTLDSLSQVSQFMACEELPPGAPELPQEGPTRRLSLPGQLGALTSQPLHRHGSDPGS

hERG (KCNH2) [4] = target: T1, hERG (KCNH2); assay: Inhibition of human ERG expressed in CHO cells at 1 uM by automated whole-cell patch clamp electrophysiology system relative to control; type: cell-based; conditions: CHO cells expressing human ERG
[5] = target: Melanin-concentrating hormone receptor 1 (Homo sapiens, UniProt Q99705); assay: Antagonist activity at human MCHR1 expressed in HEK293 cells assessed as inhibition of MCH-stimulated Ca2+ influx preincubated for 120 mins followed by MCH challenge by FLIPR assay; type: functional, cell-based
Melanin-concentrating hormone receptor 1 (Homo sapiens, UniProt Q99705), sequence (Q99705 whole entry): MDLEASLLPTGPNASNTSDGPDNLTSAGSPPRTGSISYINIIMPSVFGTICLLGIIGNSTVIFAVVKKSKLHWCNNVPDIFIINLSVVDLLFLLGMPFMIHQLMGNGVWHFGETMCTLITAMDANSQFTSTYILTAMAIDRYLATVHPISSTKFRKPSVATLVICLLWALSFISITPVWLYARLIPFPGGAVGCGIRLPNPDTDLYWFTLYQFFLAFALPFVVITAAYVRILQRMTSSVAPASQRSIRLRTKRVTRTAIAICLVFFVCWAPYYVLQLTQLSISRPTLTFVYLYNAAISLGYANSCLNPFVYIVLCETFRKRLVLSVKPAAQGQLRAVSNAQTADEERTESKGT

[6] = Drug uptake in Sprague-Dawley rat brain at 15 mg/kg, po qd measured at 20 hrs post dose; type: ADME, organism-based; conditions: read-out: Drug uptake
[7] = Fraction unbound in Sprague-Dawley rat plasma at 15 mg/kg, po qd; type: ADME, organism-based
[8] = Plasma concentration in Sprague-Dawley rat at 15 mg/kg, po qd measured at 20 hrs post dose; type: ADME, organism-based
[9] = Lipophilicity, log P of the compound by HPLC analysis; type: physicochemical
Rattus norvegicus [10] = assay: Antiobesity activity in Sprague-Dawley rat assessed as body weight loss at 15 mg/kg, po qd administered 1 hr prior to onset of dark cycle measured for 7 days relative to vehicle-treated control; type: functional
[11] = Ratio of unbound concentration in Sprague-Dawley rat brain at 10 mg/kg, po qd to Ki for rat MCHR1; type: ADME, organism-based; conditions: in vivo
Rattus norvegicus [12] = assay: Antiobesity activity in Sprague-Dawley rat assessed as body weight loss at 1 mg/kg, po qd administered 1 hr prior to onset of dark cycle measured for 7 days relative to vehicle-treated control; type: functional
[13] = Drug uptake in Sprague-Dawley rat brain at 3 mg/kg, po qd measured at 20 hrs post dose; type: ADME, organism-based; conditions: read-out: Drug uptake
[14] = Plasma concentration in Sprague-Dawley rat at 1 mg/kg, po qd measured at 20 hrs post dose; type: ADME, organism-based
[15] = Ratio of unbound concentration in Sprague-Dawley rat brain at 3 mg/kg, po qd to Ki for rat MCHR1; type: ADME, organism-based; conditions: in vivo
Rattus norvegicus [16] = assay: Antiobesity activity in Sprague-Dawley rat assessed as body weight loss at 3 mg/kg, po qd administered 1 hr prior to onset of dark cycle measured for 7 days relative to vehicle-treated control; type: functional
[17] = Drug uptake in Sprague-Dawley rat brain at 10 mg/kg, po qd measured at 20 hrs post dose; type: ADME, organism-based; conditions: read-out: Drug uptake
[18] = Plasma concentration in Sprague-Dawley rat at 3 mg/kg, po qd measured at 20 hrs post dose; type: ADME, organism-based
[19] = Fraction unbound in Sprague-Dawley rat plasma at 1 mg/kg, po qd; type: ADME, organism-based
Rattus norvegicus [20] = assay: Antiobesity activity in Sprague-Dawley rat assessed as body weight loss at 10 mg/kg, po qd administered 1 hr prior to onset of dark cycle measured for 7 days relative to vehicle-treated control; type: functional
[21] = Fraction unbound in Sprague-Dawley rat plasma at 3 mg/kg, po qd; type: ADME, organism-based
[22] = Fraction unbound in Sprague-Dawley rat plasma at 10 mg/kg, po qd; type: ADME, organism-based
Brain [23] = assay: Drug uptake in Sprague-Dawley rat brain at 1 mg/kg, po qd measured at 20 hrs post dose; type: ADME, organism-based; conditions: in vivo, BLD = below limit of detection
[24] = Plasma concentration in Sprague-Dawley rat at 10 mg/kg, po qd measured at 20 hrs post dose; type: ADME, organism-based
[25] = target: T2, Melanin-concentrating hormone receptor 1 (Rattus norvegicus, UniProt P97639); assay: Antagonist activity at rat MCHR1
T2 sequence (P97639 whole entry): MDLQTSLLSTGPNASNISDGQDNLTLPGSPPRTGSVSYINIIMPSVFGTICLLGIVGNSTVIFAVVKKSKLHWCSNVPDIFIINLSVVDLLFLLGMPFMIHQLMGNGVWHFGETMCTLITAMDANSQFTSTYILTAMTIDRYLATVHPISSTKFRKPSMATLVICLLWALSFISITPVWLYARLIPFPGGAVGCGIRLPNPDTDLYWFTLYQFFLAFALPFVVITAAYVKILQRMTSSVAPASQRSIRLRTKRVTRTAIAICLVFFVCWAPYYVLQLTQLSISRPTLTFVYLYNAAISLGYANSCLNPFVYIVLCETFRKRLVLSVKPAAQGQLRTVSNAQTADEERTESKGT

[26] = target: T2, Melanin-concentrating hormone receptor 1; assay: Antagonist activity at rat MCHR1 assessed as 2-(4-chlorophenyl)-5-(4-(2-hydroxy-2-methylpropoxy)-3-methoxyphenyl)-4,5-dihydropyrrolo[3,4-c]pyrazol-6(2H)-one
Plasma [27] = assay: Fraction unbound in Sprague-Dawley rat plasma assessed as 2-(4-chlorophenyl)-5-(4-(2-hydroxy-2-methylpropoxy)-3-methoxyphenyl)-4,5-dihydropyrrolo[3,4-c]pyrazol-6(2H)-one at 30 mg/kg, po qd; type: ADME, organism-based; conditions: in vivo
Brain [28] = assay: Drug uptake in Sprague-Dawley rat brain assessed as 2-(4-chlorophenyl)-5-(4-(2-hydroxy-2-methylpropoxy)-3-methoxyphenyl)-4,5-dihydropyrrolo[3,4-c]pyrazol-6(2H)-one at 30 mg/kg, po qd measured at 20 hrs post dose; type: ADME, organism-based; conditions: in vivo, read-out: Drug uptake
Plasma [29] = assay: Plasma concentration in Sprague-Dawley rat assessed as 2-(4-chlorophenyl)-5-(4-(2-hydroxy-2-methylpropoxy)-3-methoxyphenyl)-4,5-dihydropyrrolo[3,4-c]pyrazol-6(2H)-one at 30 mg/kg, po qd measured at 20 hrs post dose; type: ADME, organism-based; conditions: in vivo
Rattus norvegicus [30] = assay: Antiobesity activity in Sprague-Dawley rat assessed as 2-(4-chlorophenyl)-5-(4-(2-hydroxy-2-methylpropoxy)-3-methoxyphenyl)-4,5-dihydropyrrolo[3,4-c]pyrazol-6(2H)-one-mediated body weight loss at 30 mg/kg, po qd administered 1 hr prior to onset of dark cycle measured for 4 days relative to vehicle-treated control; type: functional
Brain [31] = assay: Drug uptake in Sprague-Dawley rat brain assessed as 6-(4-chlorophenyl)-3-(4-(2-hydroxy-2-methylpropoxy)-3-methoxyphenyl)thieno[3,2-d]pyrimidin-4(3H)-one at 10 mg/kg, po qd measured at 20 hrs post dose; type: ADME, organism-based; conditions: in vivo
Rattus norvegicus [32] = assay: Antiobesity activity in Sprague-Dawley rat assessed as 6-(4-chlorophenyl)-3-(4-(2-hydroxy-2-methylpropoxy)-3-methoxyphenyl)thieno[3,2-d]pyrimidin-4(3H)-one-mediated body weight loss at 10 mg/kg, po qd administered 1 hr prior to onset of dark cycle measured for 7 days relative to vehicle-treated control; type: functional
[33] = target: T2, Melanin-concentrating hormone receptor 1; assay: Antagonist activity at rat MCHR1 assessed as 6-(4-chlorophenyl)-3-(4-(2-hydroxy-2-methylpropoxy)-3-methoxyphenyl)thieno[3,2-d]pyrimidin-4(3H)-one
[34] = Ratio of drug level in brain to plasma in Sprague-Dawley rat assessed as 6-(4-chlorophenyl)-3-(4-(2-hydroxy-2-methylpropoxy)-3-methoxyphenyl)thieno[3,2-d]pyrimidin-4(3H)-one at 10 mg/kg, po qd measured at 20 hrs post dose
Plasma [35] = assay: Plasma concentration in Sprague-Dawley rat assessed as 6-(4-chlorophenyl)-3-(4-(2-hydroxy-2-methylpropoxy)-3-methoxyphenyl)thieno[3,2-d]pyrimidin-4(3H)-one at 10 mg/kg, po qd measured at 20 hrs post dose; type: ADME, organism-based; conditions: in vivo
[36] = Ratio of unbound concentration in Sprague-Dawley rat brain assessed as 6-(4-chlorophenyl)-3-(4-(2-hydroxy-2-methylpropoxy)-3-methoxyphenyl)thieno[3,2-d]pyrimidin-4(3H)-one at 10 mg/kg, po qd to Ki for rat MCHR1 assessed as 6-(4-chlorophenyl)-3-(4-(2-hydroxy-2-methylpropoxy)-3-methoxyphenyl)thieno[3,2-d]pyrimidin-4(3H)-one; type: ADME, organism-based; conditions: in vivo
Plasma [37] = assay: Fraction unbound in Sprague-Dawley rat plasma assessed as 6-(4-chlorophenyl)-3-(4-(2-hydroxy-2-methylpropoxy)-3-methoxyphenyl)thieno[3,2-d]pyrimidin-4(3H)-one at 10 mg/kg, po qd; type: ADME, organism-based; conditions: in vivo

Voltage-gated inwardly rectifying potassium channel KCNH2, sequence (Q12809 whole entry): as the sequence (Q12809 whole entry) above

COc1cc(N2Cc3nn(-c4ccc(Cl)cc4)nc3C2=O)ccc1OCC(C)(C)O
pKi [1]: 7.47

COc1cc(N2Cc3cn(-c4ccc(Cl)cn4)nc3C2=O)ccc1OCC(C)(C)O
pKi [1]: 7.36

COc1cc(N2Cc3nn(-c4ccc(Cl)cc4)cc3C2=O)ccc1OCC(C)O (configuration not stated)
pKi [1]: 6.48

COc1cc(N2Cc3cn(-c4ccc(Cl)cc4)nc3C2=O)ccc1N1CC[C@@H](O)C1
pIC50 [2]: < 4.10
pKi [1]: 8.15

CNC1CCN(c2ccc(N3Cc4cn(-c5ccc(Cl)cc5)nc4C3=O)cc2)C1 (configuration not stated)
pKi [1]: 9.10
inhibition at 0.3 µM (hERG (KCNH2) [3]): 51%

CN(C)[C@H]1CCN(c2ccc(N3Cc4cn(-c5ccc(Cl)cc5)nc4C3=O)cn2)C1
inhibition at 1 µM (hERG (KCNH2) [4]): 50%
pKi [1]: 9.15

COc1cc(N2Cc3cn(-c4ccc(Cl)cc4)nc3C2=O)ccc1N1C[C@H](O)[C@@H](O)C1
pIC50 [2]: < 4.52
inhibition at 1 µM (hERG (KCNH2) [4]): < 5%
pKi [1]: 7.96

CN[C@@H]1CCN(c2ccc(N3Cc4cn(-c5ccc(Cl)cc5)nc4C3=O)cn2)C1
inhibition at 1 µM (hERG (KCNH2) [4]): 50%
pKi [1]: 8.89

N[C@H]1CCN(c2ccc(N3Cc4cn(-c5ccc(Cl)cc5)nc4C3=O)cn2)C1
inhibition at 1 µM (hERG (KCNH2) [4]): 58%
pKi [1]: 8.68

COc1cc(N2Cc3nn(-c4ccc(Cl)cc4)cc3C2=O)ccc1OCC(C)(C)O
pKi [1]: 6.97

COc1cc(-n2cnc3cc(-c4ccc(Cl)cc4)sc3c2=O)ccc1OCC(C)(C)O
pIC50 [5]: 7.89
pKi [1]: 8.10

COc1cc(N2Cc3cn(-c4ccc(Cl)cc4)nc3C2=O)ccc1OCC(C)(C)O
pIC50 [5]: 5.93
pKi [1]: 8.10

COc1cc(N2Cc3cn(-c4ccc(Cl)cc4)nc3C2=O)ccc1OCC(C)O (configuration not stated)
pKi [1]: 7.89

COc1cc(N2Cc3nn(-c4ccc(Cl)cc4)cc3C2=O)ccc1OC[C@H](O)C1CC1
pKi [1]: 7.39

COc1cc(-n2cnc3cc(-c4ccc(Cl)cc4)sc3c2=O)ccc1OCCN1CCCC1
concentration at 20 h [6]: 654 nM
fraction unbound [7]: 0.012
concentration at 20 h [8]: 378 nM
logP [9]: 3.5
Activity (Rattus norvegicus [10]): 8.7%
pKi [1]: 9.00

COc1cc(N2Cc3nn(-c4ccc(Cl)cc4)nc3C2=O)ccc1OCC(O)C1CC1 (racemic)
pKi [1]: 6.95

COc1cc(N2Cc3cn(-c4ccc(Cl)cc4)nc3C2=O)ccc1OCCN1CCCC1
logP [9]: 2.8
pIC50 [5]: 5.51
pKi [1]: 9.38
inhibition at 0.3 µM (hERG (KCNH2) [3]): 58%

CC(=O)N(C)C1CCN(c2ccc(N3Cc4cn(-c5ccc(Cl)cc5)nc4C3=O)cn2)C1 (configuration not stated)
inhibition at 1 µM (hERG (KCNH2) [4]): 23%
pKi [1]: 8.19

CN[C@H]1CCN(c2ccc(N3Cc4cn(-c5ccc(Cl)cc5)nc4C3=O)cn2)C1
Ratio [11]: 145
Activity (Rattus norvegicus [12]): 2.2%
concentration at 20 h [13]: 739 nM
concentration at 20 h [14]: 131 nM
inhibition at 1 µM (hERG (KCNH2) [4]): 66%
Ratio [15]: 39
Activity (Rattus norvegicus [16]): 3.8%
concentration at 20 h [17]: 2770 nM
concentration at 20 h [18]: 574 nM
fraction unbound [19]: 0.042
pIC50 [5]: 6.62
pKi [1]: 9.02
Activity (Rattus norvegicus [20]): 7.5%
fraction unbound [21]: 0.042
fraction unbound [22]: 0.042
Drug uptake (Brain [23]): BLD
concentration at 20 h [24]: 1580 nM
pKi [25]: 9.10

COc1cc(N2Cc3cn(-c4ccc(Cl)cc4)nc3C2=O)ccc1OC[C@H](O)C1CC1
pKi [1]: 8.05

COc1cc(N2Cc3cn(-c4ccc(Cl)cc4)nc3C2=O)ccc1OCC(C)(C)OC(=O)CN
pKi [26]: 8.42
Fu (Plasma [27]): 1%
concentration (Brain [28]): 1060 nM
concentration (Plasma [29]): 2560 nM
Activity (Rattus norvegicus [30]): 1.8%

COc1cc(-n2cnc3cc(-c4ccc(Cl)cc4)sc3c2=O)ccc1OCC(C)(C)OC(=O)CN
Drug uptake (Brain [31]): 1610 nM
Activity (Rattus norvegicus [32]): 8.8%
pKi [33]: 8.14
BPR [34]: 1.7
concentration (Plasma [35]): 546 nM
Ratio [36]: 1.6
Fu (Plasma [37]): 0.7%

CC(C)(C)NC1CCN(c2ccc(N3Cc4cn(-c5ccc(Cl)cc5)nc4C3=O)cn2)C1 (configuration not stated)
inhibition at 1 µM (hERG (KCNH2) [4]): 71%
pKi [1]: 8.57

COc1cc(N2Cc3nn(-c4ccc(Cl)cc4)nc3C2=O)ccc1OCCN1CCCC1
logP [9]: 3.3
pKi [1]: 8.64
inhibition at 0.3 µM (hERG (KCNH2) [3]): 68%

— ChEMBL document CHEMBL3588848, “Dihydropyrrolopyrazol-6-one MCHR1 antagonists for the treatment of obesity: Insights on in vivo efficacy from a novel FLIPR assay setup” (Bioorg Med Chem Lett, 2015)
